PMC12518996 (Frontiers in Pharmacology, 2025)

Experiments:
human hepatocytes = assay: Metabolic profiling in human hepatocytes; assay type: in vitro ADME; conditions: trazodone 8 μM, 120 min incubation
Procedure: (§1) For hepatocyte incubations, pooled cryopreserved human hepatocytes (20-donor mix, Celsis) and male Sprague-Dawley rat hepatocytes (12-donor mix, Bioreclamation IVT) were used. Each incubation contained 1 million viable cells/mL in Celsis InVitro HI medium, at a pH of 7.4, and was conducted at 37 °C for 120 min under gentle agitation to facilitate metabolic activity.
(§2) Processed supernatants (4 µL) were injected onto a Thermo U3000 UHPLC system coupled to a Thermo Q-Exactive Orbitrap MS equipped with a PDA detector. […] The Orbitrap operated in positive ESI mode (sheath/aux/sweep N2 55/8/4 units; capillary 3.0 kV, 370 °C; auxiliary heater 550 °C) with full-scan m/z 100–1,000 at 35,000 FWHM (m/z 200) and DDI-MS/MS at 17,500 FWHM (7 Hz acquisition; IT […]; HCD 40 eV). External mass calibration and a 5 ppm extraction window were applied, and data were processed in Xcalibur 3.0.63/Compound Discoverer 1.0.

human liver microsomes = assay: Metabolic profiling in human liver microsomes; assay type: in vitro ADME; conditions: trazodone 8 μM, 40 min incubation
Procedure: (§3) The metabolic profile of trazodone was determined using in vitro incubations with rat and human liver microsomes, hepatocytes, and rat plasma samples. […] Microsomal incubations were conducted with pooled human and rat liver microsomes (Celsis IVT) using 0.6 mg/mL microsomal protein in 0.1 M phosphate buffer (pH 7.4). NADPH (1 mM) was added as a cofactor to initiate phase I metabolic reactions. Reactions were performed at 37 °C for 40 min with gentle shaking.
as §2

rat hepatocytes = assay: Metabolic profiling in rat hepatocytes; assay type: in vitro ADME; conditions: trazodone 8 μM, 120 min incubation
Procedure: as §1, §2

AOX = molecular target: T1, AOX (Homo sapiens, UniProt Q06278); assay: Metabolite formation by recombinant human AOX; assay type: in vitro ADME; conditions: trazodone 4 μM; 37 °C, 40 min
T1 sequence (Q06278 1-1338): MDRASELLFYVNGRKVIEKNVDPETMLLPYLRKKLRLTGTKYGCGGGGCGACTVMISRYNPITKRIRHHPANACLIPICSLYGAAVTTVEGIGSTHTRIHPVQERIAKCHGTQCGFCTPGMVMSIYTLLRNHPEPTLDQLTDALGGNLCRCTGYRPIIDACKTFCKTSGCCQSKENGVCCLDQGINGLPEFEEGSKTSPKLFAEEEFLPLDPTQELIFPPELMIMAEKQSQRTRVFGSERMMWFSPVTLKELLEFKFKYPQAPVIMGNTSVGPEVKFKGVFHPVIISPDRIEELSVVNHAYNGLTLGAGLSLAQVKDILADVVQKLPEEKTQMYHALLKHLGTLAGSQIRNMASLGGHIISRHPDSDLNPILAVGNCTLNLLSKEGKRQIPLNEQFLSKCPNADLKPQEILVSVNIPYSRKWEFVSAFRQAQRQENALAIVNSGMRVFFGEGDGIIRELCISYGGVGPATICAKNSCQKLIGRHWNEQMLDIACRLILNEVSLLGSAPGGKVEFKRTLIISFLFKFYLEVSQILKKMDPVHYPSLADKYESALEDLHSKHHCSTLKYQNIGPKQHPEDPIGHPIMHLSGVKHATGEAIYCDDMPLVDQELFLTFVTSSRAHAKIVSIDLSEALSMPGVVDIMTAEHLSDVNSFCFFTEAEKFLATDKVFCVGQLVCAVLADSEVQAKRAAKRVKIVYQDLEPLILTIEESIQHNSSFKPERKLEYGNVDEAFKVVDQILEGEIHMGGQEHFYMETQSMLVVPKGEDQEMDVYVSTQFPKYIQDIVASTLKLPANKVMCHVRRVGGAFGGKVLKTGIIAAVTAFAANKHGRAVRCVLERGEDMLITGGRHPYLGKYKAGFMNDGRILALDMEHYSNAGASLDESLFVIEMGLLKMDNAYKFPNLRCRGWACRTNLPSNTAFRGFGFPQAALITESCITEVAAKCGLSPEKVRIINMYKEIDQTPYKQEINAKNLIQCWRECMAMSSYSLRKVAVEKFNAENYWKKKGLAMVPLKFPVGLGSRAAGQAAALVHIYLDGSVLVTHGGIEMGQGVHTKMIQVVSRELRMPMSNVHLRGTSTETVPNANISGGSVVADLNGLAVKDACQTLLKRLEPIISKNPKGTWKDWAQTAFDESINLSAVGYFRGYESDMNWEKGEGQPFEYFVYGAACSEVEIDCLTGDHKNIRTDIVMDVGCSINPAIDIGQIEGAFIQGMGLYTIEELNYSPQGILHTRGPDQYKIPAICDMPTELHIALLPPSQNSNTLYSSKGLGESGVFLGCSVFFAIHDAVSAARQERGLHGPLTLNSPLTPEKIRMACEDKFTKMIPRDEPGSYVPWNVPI

rat liver microsomes = assay: Metabolic profiling in rat liver microsomes; assay type: in vitro ADME; conditions: trazodone 8 μM, 40 min incubation
Procedure: as §3, §2

[1] = Metabolic profiling in rat plasma after oral trazodone; assay type: in vivo
Procedure: Following incubation, all reactions were terminated by adding an equal volume of cold acetonitrile to precipitate proteins. Samples were then centrifuged at 13,000 x g for 10 min, and the supernatants were transferred to 96-well plates for analysis.
as §2

CYP1A2 = molecular target: T2, CYP1A2 (Homo sapiens, UniProt P05177); conditions: human hepatocytes; probe phenacetin; 0.1-100 μM
T2 sequence (P05177 1-516): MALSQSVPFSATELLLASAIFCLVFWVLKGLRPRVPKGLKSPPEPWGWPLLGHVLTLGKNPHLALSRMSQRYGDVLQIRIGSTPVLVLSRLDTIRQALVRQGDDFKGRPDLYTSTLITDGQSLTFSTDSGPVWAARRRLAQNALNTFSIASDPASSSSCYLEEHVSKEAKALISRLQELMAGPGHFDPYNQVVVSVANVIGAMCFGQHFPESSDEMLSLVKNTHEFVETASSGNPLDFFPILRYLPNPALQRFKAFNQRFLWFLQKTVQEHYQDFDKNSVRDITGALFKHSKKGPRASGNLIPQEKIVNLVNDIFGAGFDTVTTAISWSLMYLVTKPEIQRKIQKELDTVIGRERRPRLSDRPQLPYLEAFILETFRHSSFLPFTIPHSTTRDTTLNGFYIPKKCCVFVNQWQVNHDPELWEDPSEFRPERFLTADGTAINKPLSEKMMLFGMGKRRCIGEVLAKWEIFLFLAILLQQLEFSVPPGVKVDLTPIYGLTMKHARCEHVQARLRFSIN

CYP2E1 = CYP2E1 (Homo sapiens, UniProt P05181); assay: biochemical
CYP3A4 = CYP3A4 (Homo sapiens, UniProt P08684); conditions: human hepatocytes; probe midazolam; 0.1-100 μM
CYP3A4, sequence (P08684 whole entry): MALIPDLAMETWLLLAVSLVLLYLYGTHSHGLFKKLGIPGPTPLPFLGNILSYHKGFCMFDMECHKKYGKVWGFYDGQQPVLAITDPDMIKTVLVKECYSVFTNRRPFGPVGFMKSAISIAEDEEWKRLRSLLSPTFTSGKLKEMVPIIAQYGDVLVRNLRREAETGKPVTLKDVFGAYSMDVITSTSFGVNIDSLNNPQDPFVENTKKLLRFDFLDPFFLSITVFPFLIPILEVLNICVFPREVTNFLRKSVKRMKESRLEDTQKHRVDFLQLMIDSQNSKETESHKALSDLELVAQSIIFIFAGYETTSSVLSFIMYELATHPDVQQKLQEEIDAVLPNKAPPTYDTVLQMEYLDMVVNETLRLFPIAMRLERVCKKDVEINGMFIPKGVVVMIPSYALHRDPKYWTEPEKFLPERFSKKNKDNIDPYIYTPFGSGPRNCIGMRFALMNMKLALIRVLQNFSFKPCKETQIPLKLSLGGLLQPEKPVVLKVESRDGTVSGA

CYP2E1, sequence (P05181 whole entry): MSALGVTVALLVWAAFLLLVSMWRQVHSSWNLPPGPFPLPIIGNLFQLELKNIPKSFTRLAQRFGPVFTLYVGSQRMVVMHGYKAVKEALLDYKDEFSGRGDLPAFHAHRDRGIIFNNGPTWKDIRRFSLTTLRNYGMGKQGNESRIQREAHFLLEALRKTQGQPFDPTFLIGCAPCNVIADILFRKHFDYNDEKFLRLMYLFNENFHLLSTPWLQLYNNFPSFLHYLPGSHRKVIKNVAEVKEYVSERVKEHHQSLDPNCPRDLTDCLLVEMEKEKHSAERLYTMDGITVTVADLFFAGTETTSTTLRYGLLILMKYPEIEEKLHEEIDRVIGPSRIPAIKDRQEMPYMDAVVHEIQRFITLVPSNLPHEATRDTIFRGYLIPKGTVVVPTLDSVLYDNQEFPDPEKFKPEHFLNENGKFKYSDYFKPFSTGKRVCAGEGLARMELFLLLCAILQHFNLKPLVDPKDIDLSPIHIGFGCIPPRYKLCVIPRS

| SMILES | relative abundance (% of total LC-MS signal), Hepatocytes Human (%) (human hepatocytes) | relative abundance (% of total LC-MS signal), Liver microsomes Human (%) (human liver microsomes) | relative abundance (% of total LC-MS signal), Hepatocytes Rat (%) (rat hepatocytes) | Formation of trazodone phase I metabolite by recombinant human AOX (as LC/MS peak areas) (AOX) | relative abundance (% of total LC-MS signal), Liver microsomes Rat (%) (rat liver microsomes) | relative abundance (% of total LC-MS signal), Rat plasma 0.25h (%) ([1]; rat plasma 0.25 h after oral trazodone 30 mg/kg) | relative abundance (% of total LC-MS signal), Rat plasma 6h (%) ([1]; rat plasma 6 h after oral trazodone 30 mg/kg) | IC50 value (µM), CYP1A2 (CYP1A2) | IC50 (CYP2E1) | IC50 value (µM), CYP3A4 (CYP3A4) |
| --- | --- | --- | --- | --- | --- | --- | --- | --- | --- | --- |
| O=c1n(CCCN2CCNCC2)nc2ccccn12 [Metabolite M15] | 0.2% | 0.3% | 0.7% | 0 | 0.8% | 0.1% | 0.1% |  |  |  |
| O=c1n(CCCO)nc2ccccn12 [Metabolite M20] | 0.9% | 2.9% | 0.9% | 0 | 1.4% |  |  |  |  |  |
| Clc1cccc(N2CCNCC2)c1 [mCPP, m-chlorophenylpiperazine] |  |  |  | 106 |  |  |  | inactive | 6.46 µM | inactive |
